Read-outs that look alike come from different tables or passages of the source.
Columns and labels:
mTOR = biological target: T1, mTOR (Homo sapiens, UniProt P42345); assay: mTOR kinobeads assay (dot blot detection); assay type: binding
T1 construct: endogenous in cells; host or cells: Jurkat cells (ATCC TIB-152, clone E6-1), lysate
In short: (§1)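 Jurkat cell lysate (5 mg/ml protein) was incubated with test compounds and kinobeads (immobilized phenylthiazole and phenylmorpholin-chromen ligands) for 2 h in the cold with shaking. Bead-bound kinase was SDS-eluted and quantified by antibody dot blot with infrared detection. IC50 values came from dose-response curves.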

PI3K delta (PI3Kd) = biological target: T2, PI3K delta (PI3Kd) (Homo sapiens, UniProt O00329); assay: kinobeads assay, PI3K delta (dot blot detection); assay type: binding
T2 construct: endogenous in cells; host or cells: Jurkat cells (ATCC TIB-152, clone E6-1), lysate
In short: as §1

[1] = biological target: T3, DNA-dependent protein kinase (DNA-PK) (Homo sapiens, UniProt P78527); assay: kinobeads assay, DNA-PK (dot blot detection); assay type: binding
T3 construct: endogenous in cells; host or cells: Jurkat cells (ATCC TIB-152, clone E6-1), lysate
In short: as §1

PI3Kα = biological target: T4, PI3Kα (Homo sapiens, UniProt P42336); assay: kinobeads assay, PI3K alpha (dot blot detection); assay type: binding; details: Table 4, read-out: Inhibition values (IC50) PI3Ka
T4 construct: endogenous in cells; host or cells: Jurkat cells (ATCC TIB-152) lysate, the only lysate described

PI3Kβ = biological target: T5, PI3Kβ (Homo sapiens, UniProt P42338); assay: kinobeads assay, PI3K beta (dot blot detection); assay type: binding; details: Table 4, read-out: Inhibition values (IC50) PI3Kb
T5 construct: endogenous in cells; host or cells: Jurkat cells (ATCC TIB-152) lysate, the only lysate described

PI3Kγ = biological target: T6, PI3Kγ (Homo sapiens, UniProt P48736); assay: kinobeads assay, PI3K gamma (dot blot detection); assay type: binding; details: Table 4, read-out: Inhibition values (IC50) PI3Kg
T6 construct: endogenous in cells; host or cells: Jurkat cells (ATCC TIB-152) lysate, the only lysate described

[2] = test system: S6RP serine-240/244 phosphorylation in HEK293T/17 cells; assay: In vitro phospho-S6 cellular assay (pS6RP S240/244); assay type: cell-based; details: Homo sapiens, Table 6, 2 hours, S6RP Ser240/244, read-out: pS6 (phospho-S6 cell assay data, activity level)
From the text: In Vitro Phospho-S6 and Phospho-Akt Cellular Assay
Activation of mTOR signaling results in phosphorylation of several downstream targets. In cells, mTOR exists in two different protein complexes. The mTOR Complex-1 (mTORC1) phosphorylates and activates S6 Kinase 1 (S6K1) and S6 Kinase 2 (S6K2) (also known as p70S6K) which then phosphorylate S6 Ribosomal Protein (S6RP) (also known as RPS6). S6RP is phosphorylated on serine 235, serine 236, serine 240 and serine 244 by both pS6K1 and pS6K2. The mTOR Complex-2 (mTORC2) phosphorylates AKT on serine 473 which activates the AKT signaling pathway.
The assay measures a test compound's inhibition of S6RP serine-240/244 phosphorylation and inhibition of Akt serine-473 phosphorylation in human embryonic kidney derived HEK293T/17 cells (ATCC CRL-11268).
The HEK293T/17 cell line is maintained in DMEM media (Invitrogen catalogue number 41965-039) supplemented with 10% FCS at 37° C. in a 5% CO2 humidified incubator.
Cells are seeded in 96-well plates at 40,000 cells/well (pS6RP S240/244 assay) or 80,000 cells/well (pAkt 5473 assay) in 90 μl growth media (DMEM, 2% FCS). Plates are incubated for 1 hour in a humidified incubator to allow the cells to adhere. Cells are treated with 8 concentrations of test compounds or DMSO alone for controls (final DMSO concentration 0.1%) and incubated at 37° C. for 2 hours. Then 20 μl of 5× concentrated lysis buffer (750 mM NaCl, 100 mM Tris pH7.4, 5 mM EDTA, 5 mM EGTA, 5% Triton X-100) is added, plates are sealed and incubated for 15 minutes at 4° C. with gentle shaking. After cell lysis, 25 μl cell lysate is transferred to a MesoScale plate coated with an antibody to pS6RP Ser240/244 (MesoScale Discovery K150DGD-3) or an antibody to pAkt Ser 473 (MesoScale Discovery K151DGD-3). Plates have been blocked before by incubation with 150 μl MesoScale Discovery Blocking Solution-A for 1 hour at room temperature followed by washing with 150 μl 1× Tris wash buffer per well. After the transfer of the cell lysate to the MSD plate, the pS6RP (or pAkt) protein is captured on the coated antibody by incubation at room temperature for 1 hour with gentle shaking. After the capture step the plate is washed three times with 150 μl of 1× Tris wash buffer per well. Then 25 μl detection antibody conjugated with a Sulfo-Tag is added and incubated for 1 hour at room temperature with gentle shaking. Subsequently the antibody solution is removed and the plate is washed 3 times with 150 μl 1× Tris wash buffer per well and 150 μl Read buffer is added. The plates are analysed on a MSD 2400 Plate Reader (MesoScale Discovery). Data analysis is performed using nonlinear regression for a sigmoidal dose-response with a variable slope.

[3] = Table 2, Jurkat cell lysate, read-out: Inhibition values (IC50) mTor
[4] = Table 4, read-out: Inhibition values (IC50) mTOR
[5] = Table 2, Jurkat cell lysate, read-out: Inhibition values (IC50) PI3Kd
[6] = Table 4, read-out: Inhibition values (IC50) PI3Kd
[7] = Table 2, Jurkat cell lysate, read-out: Inhibition values (IC50) DNAPK
[8] = Table 4, read-out: Inhibition values (IC50) DNAPK

T6 sequence (P48736 whole entry): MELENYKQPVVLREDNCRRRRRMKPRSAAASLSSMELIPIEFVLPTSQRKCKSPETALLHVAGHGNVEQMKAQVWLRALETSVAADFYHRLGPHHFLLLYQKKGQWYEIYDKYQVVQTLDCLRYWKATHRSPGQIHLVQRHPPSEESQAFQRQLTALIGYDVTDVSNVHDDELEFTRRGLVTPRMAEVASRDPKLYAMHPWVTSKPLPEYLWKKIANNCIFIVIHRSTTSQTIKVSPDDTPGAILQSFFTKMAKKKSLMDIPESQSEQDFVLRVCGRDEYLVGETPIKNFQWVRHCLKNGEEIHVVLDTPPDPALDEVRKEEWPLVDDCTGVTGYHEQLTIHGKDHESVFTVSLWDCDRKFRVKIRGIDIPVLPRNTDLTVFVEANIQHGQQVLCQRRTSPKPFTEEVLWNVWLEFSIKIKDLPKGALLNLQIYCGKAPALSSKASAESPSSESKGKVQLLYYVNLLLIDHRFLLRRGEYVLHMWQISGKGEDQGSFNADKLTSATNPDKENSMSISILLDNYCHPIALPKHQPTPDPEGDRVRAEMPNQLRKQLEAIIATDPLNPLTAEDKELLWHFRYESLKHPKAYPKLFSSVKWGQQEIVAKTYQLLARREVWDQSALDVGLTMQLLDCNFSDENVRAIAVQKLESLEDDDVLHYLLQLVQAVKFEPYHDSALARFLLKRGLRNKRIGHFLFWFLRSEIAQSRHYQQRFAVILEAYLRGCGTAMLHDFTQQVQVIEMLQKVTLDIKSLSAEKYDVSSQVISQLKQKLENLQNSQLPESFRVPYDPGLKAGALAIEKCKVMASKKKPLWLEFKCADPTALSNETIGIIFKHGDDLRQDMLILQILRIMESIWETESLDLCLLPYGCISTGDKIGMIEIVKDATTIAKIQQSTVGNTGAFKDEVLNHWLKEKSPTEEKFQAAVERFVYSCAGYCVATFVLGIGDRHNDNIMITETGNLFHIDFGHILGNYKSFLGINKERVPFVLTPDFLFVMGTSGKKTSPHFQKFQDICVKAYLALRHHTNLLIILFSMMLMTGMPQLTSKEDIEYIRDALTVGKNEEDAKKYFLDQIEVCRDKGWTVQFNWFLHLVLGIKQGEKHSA
T4 sequence (P42336 whole entry): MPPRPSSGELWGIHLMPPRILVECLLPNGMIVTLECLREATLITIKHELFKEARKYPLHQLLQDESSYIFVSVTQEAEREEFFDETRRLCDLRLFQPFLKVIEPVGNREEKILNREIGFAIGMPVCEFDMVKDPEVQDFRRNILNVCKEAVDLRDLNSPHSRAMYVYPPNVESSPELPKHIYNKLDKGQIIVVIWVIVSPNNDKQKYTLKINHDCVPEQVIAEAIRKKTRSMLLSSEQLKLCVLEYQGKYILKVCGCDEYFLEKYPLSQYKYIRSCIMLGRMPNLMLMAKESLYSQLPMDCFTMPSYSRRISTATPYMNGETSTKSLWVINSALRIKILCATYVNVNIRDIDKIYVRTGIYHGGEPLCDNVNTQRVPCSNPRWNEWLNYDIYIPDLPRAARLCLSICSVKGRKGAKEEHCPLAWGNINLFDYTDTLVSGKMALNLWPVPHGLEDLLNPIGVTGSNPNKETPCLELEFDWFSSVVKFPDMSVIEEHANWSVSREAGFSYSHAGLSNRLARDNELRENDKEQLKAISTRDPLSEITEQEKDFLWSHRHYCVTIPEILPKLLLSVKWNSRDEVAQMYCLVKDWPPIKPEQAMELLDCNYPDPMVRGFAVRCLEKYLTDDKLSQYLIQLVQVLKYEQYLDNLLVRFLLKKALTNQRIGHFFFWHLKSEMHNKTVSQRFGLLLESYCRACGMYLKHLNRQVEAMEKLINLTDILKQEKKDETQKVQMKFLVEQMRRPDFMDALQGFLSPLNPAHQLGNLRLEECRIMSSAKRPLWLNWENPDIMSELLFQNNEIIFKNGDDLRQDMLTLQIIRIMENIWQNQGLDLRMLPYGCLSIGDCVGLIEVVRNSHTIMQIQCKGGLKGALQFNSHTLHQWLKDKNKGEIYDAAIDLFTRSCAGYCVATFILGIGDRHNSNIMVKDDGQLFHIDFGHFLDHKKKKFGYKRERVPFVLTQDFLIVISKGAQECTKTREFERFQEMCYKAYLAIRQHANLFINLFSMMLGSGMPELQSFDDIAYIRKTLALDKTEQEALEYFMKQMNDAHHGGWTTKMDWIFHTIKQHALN
T4 sequence (P27986 whole entry partner): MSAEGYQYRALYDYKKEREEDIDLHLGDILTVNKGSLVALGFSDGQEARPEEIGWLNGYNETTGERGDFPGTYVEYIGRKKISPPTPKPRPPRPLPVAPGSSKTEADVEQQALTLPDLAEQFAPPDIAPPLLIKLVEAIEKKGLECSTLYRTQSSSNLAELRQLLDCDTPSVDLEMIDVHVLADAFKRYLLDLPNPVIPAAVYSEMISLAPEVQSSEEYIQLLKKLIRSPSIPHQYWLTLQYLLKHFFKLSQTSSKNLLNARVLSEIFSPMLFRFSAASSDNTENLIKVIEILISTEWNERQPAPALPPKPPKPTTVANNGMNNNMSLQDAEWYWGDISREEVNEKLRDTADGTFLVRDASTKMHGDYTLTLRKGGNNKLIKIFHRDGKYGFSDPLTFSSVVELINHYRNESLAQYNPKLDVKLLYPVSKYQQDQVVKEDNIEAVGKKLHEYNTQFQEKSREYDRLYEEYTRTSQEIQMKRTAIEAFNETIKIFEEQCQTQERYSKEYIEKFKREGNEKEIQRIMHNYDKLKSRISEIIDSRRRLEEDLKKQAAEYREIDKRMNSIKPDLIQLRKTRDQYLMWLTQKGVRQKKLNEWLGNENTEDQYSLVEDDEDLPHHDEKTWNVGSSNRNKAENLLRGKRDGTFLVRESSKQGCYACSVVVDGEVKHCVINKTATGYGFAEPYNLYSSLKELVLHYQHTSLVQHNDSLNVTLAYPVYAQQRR
T5 sequence (P42338 whole entry): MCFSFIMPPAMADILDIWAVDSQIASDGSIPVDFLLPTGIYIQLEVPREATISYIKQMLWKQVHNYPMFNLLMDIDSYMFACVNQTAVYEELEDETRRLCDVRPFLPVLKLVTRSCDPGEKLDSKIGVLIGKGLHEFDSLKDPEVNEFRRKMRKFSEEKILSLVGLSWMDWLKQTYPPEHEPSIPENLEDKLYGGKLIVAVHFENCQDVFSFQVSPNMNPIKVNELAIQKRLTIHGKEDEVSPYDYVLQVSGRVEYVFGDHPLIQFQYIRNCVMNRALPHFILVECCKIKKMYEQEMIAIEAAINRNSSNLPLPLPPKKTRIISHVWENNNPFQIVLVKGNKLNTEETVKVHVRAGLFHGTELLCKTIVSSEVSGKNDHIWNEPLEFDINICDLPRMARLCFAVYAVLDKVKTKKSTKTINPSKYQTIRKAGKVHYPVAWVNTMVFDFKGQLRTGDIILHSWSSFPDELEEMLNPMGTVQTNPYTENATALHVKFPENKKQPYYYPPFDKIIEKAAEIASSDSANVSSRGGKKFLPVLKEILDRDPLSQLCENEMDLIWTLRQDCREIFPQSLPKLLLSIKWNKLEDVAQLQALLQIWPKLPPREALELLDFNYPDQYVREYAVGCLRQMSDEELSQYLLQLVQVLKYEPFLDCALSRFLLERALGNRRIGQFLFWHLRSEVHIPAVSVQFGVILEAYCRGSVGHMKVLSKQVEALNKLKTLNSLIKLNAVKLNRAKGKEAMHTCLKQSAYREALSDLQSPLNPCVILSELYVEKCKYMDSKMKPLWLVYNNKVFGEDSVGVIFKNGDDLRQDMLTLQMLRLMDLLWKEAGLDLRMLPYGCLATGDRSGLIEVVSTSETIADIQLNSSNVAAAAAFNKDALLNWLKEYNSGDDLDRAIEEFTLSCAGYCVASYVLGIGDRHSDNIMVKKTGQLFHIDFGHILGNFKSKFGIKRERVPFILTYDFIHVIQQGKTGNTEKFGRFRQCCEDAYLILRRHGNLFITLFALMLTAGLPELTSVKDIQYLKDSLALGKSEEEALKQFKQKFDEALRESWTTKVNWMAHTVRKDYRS
T5 sequence (P27986 whole entry partner): as the sequence (P27986 whole entry partner) above
T2 sequence (O00329 whole entry): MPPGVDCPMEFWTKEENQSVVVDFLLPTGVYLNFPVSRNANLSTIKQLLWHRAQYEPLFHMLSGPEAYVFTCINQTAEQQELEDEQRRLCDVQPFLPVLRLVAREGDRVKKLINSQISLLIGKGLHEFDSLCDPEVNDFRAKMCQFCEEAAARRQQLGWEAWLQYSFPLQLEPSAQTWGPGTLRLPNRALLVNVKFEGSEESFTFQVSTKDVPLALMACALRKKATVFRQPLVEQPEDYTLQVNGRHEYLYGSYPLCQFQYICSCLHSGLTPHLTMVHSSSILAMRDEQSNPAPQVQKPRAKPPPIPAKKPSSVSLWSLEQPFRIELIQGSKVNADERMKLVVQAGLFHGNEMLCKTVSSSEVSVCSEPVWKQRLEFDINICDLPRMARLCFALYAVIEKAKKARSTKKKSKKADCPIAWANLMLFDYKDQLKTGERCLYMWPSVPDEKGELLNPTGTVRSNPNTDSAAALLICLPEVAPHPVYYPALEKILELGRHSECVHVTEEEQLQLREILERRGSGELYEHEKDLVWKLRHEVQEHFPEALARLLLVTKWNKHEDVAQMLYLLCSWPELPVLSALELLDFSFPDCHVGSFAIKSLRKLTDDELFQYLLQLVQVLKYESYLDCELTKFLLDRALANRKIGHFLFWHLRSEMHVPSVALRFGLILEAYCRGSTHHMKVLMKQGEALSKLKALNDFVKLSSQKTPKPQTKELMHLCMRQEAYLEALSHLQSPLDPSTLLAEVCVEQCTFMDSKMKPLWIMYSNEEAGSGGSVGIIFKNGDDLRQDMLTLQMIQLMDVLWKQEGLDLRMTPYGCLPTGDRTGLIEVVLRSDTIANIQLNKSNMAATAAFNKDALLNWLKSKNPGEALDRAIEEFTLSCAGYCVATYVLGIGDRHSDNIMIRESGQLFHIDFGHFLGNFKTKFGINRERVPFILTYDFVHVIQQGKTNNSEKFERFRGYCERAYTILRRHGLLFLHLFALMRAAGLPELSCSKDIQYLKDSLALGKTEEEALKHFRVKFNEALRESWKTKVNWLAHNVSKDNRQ
T2 sequence (P27986 whole entry partner): as the sequence (P27986 whole entry partner) above

| Structure (SMILES) | IC50 (mTOR; [3]) [µM] | IC50 (mTOR; [4]) [µM] | IC50 (PI3K delta (PI3Kd); [5]) [µM] | IC50 (PI3K delta (PI3Kd); [6]) [µM] | IC50 [1, 7] [µM] | IC50 [1, 8] [µM] | IC50 (PI3Kα) [µM] | IC50 (PI3Kβ) [µM] | IC50 (PI3Kγ) [µM] | IC50 [2] [µM] |
| --- | --- | --- | --- | --- | --- | --- | --- | --- | --- | --- |
| C[C@H]1COCCN1c1ccnc(-c2ccc(NC(=O)NCC(F)F)cc2)n1 [Example 54, (S)-1-(2,2-difluoroethyl)-3-(4-(4-(3-methylmorpholino)pyrimidin-2-yl)phenyl)urea] | 0.1 to 1 | 0.1 to 1 | ≥ 10 | ≥ 10 | ≥ 10 | ≥ 10 | ≥ 10 | ≥ 10 | ≥ 10 | 0.1 to 1 |
| C[C@H]1COCCN1c1ccnc(-c2ccc(NC(=O)NCCF)cc2)n1 [Example 55, (S)-1-(2-fluoroethyl)-3-(4-(4-(3-methylmorpholino)pyrimidin-2-yl)phenyl)urea] | 0.1 to 1 | 0.1 to 1 | ≥ 10 | ≥ 10 | ≥ 10 | ≥ 10 | ≥ 10 | ≥ 10 | ≥ 10 | 0.1 to 1 |
| CCNC(=O)Nc1ccc(-c2ccnc(N3CC4CCC(C3)O4)n2)cc1 [Example 56, 1-(4-(2-(8-oxa-3-azabicyclo[3.2.1]octan-3-yl)pyrimidin-4-yl)phenyl)-3-ethylurea] | 1 to 10 | 1 to 10 | ≥ 10 | ≥ 10 | ≥ 10 | ≥ 10 | ≥ 10 | ≥ 10 | ≥ 10 | 0.1 to 1 |
| O=C(Nc1ccc(-c2ccnc(N3CC4CCC(C3)O4)n2)cc1)NC1CC1 [Example 57, 1-(4-(2-(8-oxa-3-azabicyclo[3.2.1]octan-3-yl)pyrimidin-4-yl)phenyl)-3-cyclopropylurea] | 1 to 10 | 1 to 10 | ≥ 10 | ≥ 10 | ≥ 10 | ≥ 10 | ≥ 10 | ≥ 10 | ≥ 10 | 0.1 to 1 |
| C[C@H]1COCCN1c1nccc(-c2ccc(NC(=O)NCCO)cc2)n1 [Example 58, (S)-1-(2-hydroxyethyl)-3-(4-(2-(3-methylmorpholino)pyrimidin-4-yl)phenyl)urea] | 1 to 10 | 1 to 10 | ≥ 10 | ≥ 10 | ≥ 10 | ≥ 10 | ≥ 10 | ≥ 10 | ≥ 10 | 0.1 to 1 |
| O=C(NCCO)Nc1ccc(-c2ccnc(N3CC4CCC(C3)O4)n2)cc1 [Example 59, 1-(4-(2-(8-oxa-3-azabicyclo[3.2.1]octan-3-yl)pyrimidin-4-yl)phenyl)-3-(2-hydroxyethyl)urea] | 1 to 10 | 1 to 10 | ≥ 10 | ≥ 10 | ≥ 10 | ≥ 10 | ≥ 10 | ≥ 10 | ≥ 10 | 0.1 to 1 |
| C[C@H]1COCCN1c1cc(-c2cncc(F)c2)nc(-c2ccc(NC(=O)NC3CC3)cc2F)n1 [Example 63, (S)-1-cyclopropyl-3-(3-fluoro-4-(4-(5-fluoropyridin-3-yl)-6-(3-methylmorpholino)pyrimidin-2-yl)phenyl)urea] | 1 to 10 | 1 to 10 | ≥ 10 | ≥ 10 | ≥ 10 | ≥ 10 | ≥ 10 | ≥ 10 | ≥ 10 | 0.1 to 1 |
| C[C@H]1COCCN1c1cc(-c2cncc(F)c2)nc(-c2ccc(NC(=O)NCCO)cc2F)n1 [Example 65, (S)-1-(3-fluoro-4-(4-(5-fluoropyridin-3-yl)-6-(3-methylmorpholino)pyrimidin-2-yl)phenyl)-3-(2-hydroxyethyl)urea] | 0.1 to 1 | 0.1 to 1 | ≥ 10 | ≥ 10 | ≥ 10 | ≥ 10 | ≥ 10 | ≥ 10 | ≥ 10 | 0.1 to 1 |
| C[C@H]1COCCN1c1cc(-c2cc(F)ccc2S(C)(=O)=O)nc(-c2ccc(NC(=O)NC3CC3)cc2F)n1 [Example 66, (S)-1-cyclopropyl-3-(3-fluoro-4-(4-(5-fluoro-2-(methylsulfonyl)phenyl)-6-(3-methylmorpholino)pyrimidin-2-yl)phenyl)urea] | 1 to 10 | 1 to 10 | ≥ 10 | ≥ 10 | ≥ 10 | ≥ 10 | ≥ 10 | ≥ 10 | ≥ 10 | 0.1 to 1 |
| C[C@H]1COCCN1c1cc(-c2cncc(F)c2)nc(-c2ccc(NC(=O)NCCF)cc2F)n1 [Example 67, (S)-1-(3-fluoro-4-(4-(5-fluoropyridin-3-yl)-6-(3-methylmorpholino)pyrimidin-2-yl)phenyl)-3-(2-fluoroethyl)urea] | 1 to 10 | 1 to 10 | ≥ 10 | ≥ 10 | ≥ 10 | ≥ 10 | ≥ 10 | ≥ 10 | ≥ 10 | 0.1 to 1 |
| C[C@H]1COCCN1c1cc(-c2cc(F)ccc2S(C)(=O)=O)nc(-c2ccc(NC(=O)NCCF)cc2F)n1 [Example 68, (S)-1-(3-fluoro-4-(4-(5-fluoro-2-(methylsulfonyl)phenyl)-6-(3-methylmorpholino)pyrimidin-2-yl)phenyl)-3-(2-fluoroethyl)urea] | 1 to 10 | 1 to 10 | ≥ 10 | ≥ 10 | ≥ 10 | ≥ 10 | ≥ 10 | ≥ 10 | ≥ 10 | 0.1 to 1 |
| C[C@H]1COCCN1c1nc(-c2ccc(NC(=O)NC(C)(C)CO)cc2)cc(-c2cc(F)ccc2S(C)(=O)=O)n1 [Example 69, (S)-1-(4-(6-(5-fluoro-2-(methylsulfonyl)phenyl)-2-(3-methylmorpholino)pyrimidin-4-yl)phenyl)-3-(1-hydroxy-2-methylpropan-2-yl)urea] | 1 to 10 | 1 to 10 | ≥ 10 | ≥ 10 | ≥ 10 | ≥ 10 | ≥ 10 | ≥ 10 | ≥ 10 | < 0.1 |
| C[C@H]1COCCN1c1nc(-c2ccc(NC(=O)NCC(N)=O)cc2)cc(-c2cc(F)ccc2S(C)(=O)=O)n1 [Example 70, (S)-2-(3-(4-(6-(5-fluoro-2-(methylsulfonyl)phenyl)-2-(3-methylmorpholino)pyrimidin-4-yl)phenyl)ureido)acetamide] | 1 to 10 | 1 to 10 | ≥ 10 | ≥ 10 | ≥ 10 | ≥ 10 | ≥ 10 | ≥ 10 | ≥ 10 | 0.1 to 1 |

Source: US9249129B2, “Morpholino substituted urea derivatives as mTOR inhibitors” (CELLZOME LIMITED, priority 2010, dated 2016)
